Structures are written as SMILES.

The first series has as its system Canidae. The following applies: acute; Dog Other.
A word on the NOAEL: it is the highest tested level that showed no adverse finding. The compound `CCOC(=O)CSc1nc(C(C)(C)C)nn1C(=O)N(C)C` [Triazamate] had an NOAEL of 1.5 mg/kg-day.
Turning to `CCOc1ccc2c(c1)C(C)=CC(C)(C)N2` [Ethoxyquin], the NOAEL came out at 50 mg/kg-day.

The series is the same for the next values; noted with them: chronic; duration: 1 years; Dog Other.
Turning to `CCOP(=O)(SC(C)CC)N1CCSC1=O` (configuration not stated) [Fosthiazate], the NOAEL amounted to 0.5 mg/kg-day.

Staying with this series, now noted: chronic; duration: 2 years; Dog Other.
The compound `Cc1ccc(N=CN(C)C=Nc2ccc(C)cc2C)c(C)c1` [Amitraz] displayed an NOAEL of 1 mg/kg-day.

Staying with this series, now noted: short-term; duration: 2 weeks; Dog Other.
Compound `COc1cccc(C(=O)NN(C(=O)c2cc(C)cc(C)c2)C(C)(C)C)c1C` [Methoxyfenozide] yielded an NOAEL of 20 mg/kg-day.

The series is the same for the next values; noted with them: subchronic; duration: 1 months; Dog Other.
With `O=C(O)COC(=O)c1cc(Oc2ccc(C(F)(F)F)cc2Cl)ccc1[N+](=O)[O-]`, the NOAEL turned out to be 60 mg/kg-day.

Still in this series, the particulars now being: subchronic; duration: 90 days; Dog Other.
Turning to `Cc1ccc(N=CN(C)C=Nc2ccc(C)cc2C)c(C)c1` [Amitraz], the NOAEL came out at 1 mg/kg-day.
`C[n+]1ccc(-c2cc[n+](C)cc2)cc1` [Paraquat] showed an NOAEL of 0.5 mg/kg-day.
The same measure, in the same setting: next, `CCOP(=O)(SC(C)CC)N1CCSC1=O` (configuration not stated) [Fosthiazate]: 0.5 mg/kg-day.

In another series the test system is Rattus norvegicus. The conditions noted are these: acute.
`CCOP(=S)(OCC)SCSCC` [Phorate]: the NOAEL was determined as 0.3 mg/kg-day.
The same measure, in the same setting: the result for `CCNc1nc(Cl)nc(NCC)n1` [Simazine] reads 2.5 mg/kg-day; that for `COC(=O)N(C(=O)N1CO[C@@]2(C(=O)OC)Cc3cc(Cl)ccc3C2=N1)c1ccc(OC(F)(F)F)cc1` [Indoxacarb], 12.5 mg/kg-day.
Still for that read-out and setting: the result for `OC(c1ccc(Cl)cc1)(c1ccc(Cl)cc1)C(Cl)(Cl)Cl` [Dicofol] reads 15 mg/kg-day; that for `CCOP(=S)(OCC)Oc1ccc([N+](=O)[O-])cc1` [Parathion], 0.5 mg/kg-day.
Consider `CCCSP(=O)(OCC)Oc1ccc(Br)cc1Cl` (configuration not stated) [Profenofos], for which the NOAEL came to 100 mg/kg-day.
`CCOP(=S)(OCC)SCSC(C)(C)C` [Terbufos] showed an NOAEL of 0.2 mg/kg-day.
On to `CCOP(=S)(OCC)SCCSCC` [Disulfoton], for which the NOAEL amounted to 0.3 mg/kg-day.

Staying with this series, now noted: developmental; development.
In turn, `S=C1NCCN1` [4,5-Dihydro-2-mercaptoimidazole] had an NOAEL of 5 mg/kg-day.
`C=CC1(C)OC(=O)N(c2cc(Cl)cc(Cl)c2)C1=O` (configuration not stated) [Vinclozolin] showed an NOAEL of 6 mg/kg-day.
The compound `COCC(=O)N(c1c(C)cccc1C)[C@H](C)C(=O)OC` [Metalaxyl-M] displayed an NOAEL of 50 mg/kg-day.
Consider `CCN(CC)C(=O)SCc1ccc(Cl)cc1` [Thiobencarb], for which the NOAEL turned out to be 25 mg/kg-day.
Consider `CC12CC1(C)C(=O)N(c1cc(Cl)cc(Cl)c1)C2=O` (configuration not stated) [Procymidone], for which the NOAEL was determined as 3.5 mg/kg-day.

The series is the same for the next values; noted with them: repeat dose other.
In the case of `N#Cc1c(Cl)c(Cl)c(Cl)c(C#N)c1Cl` [Chlorothalonil], the NOAEL amounted to 60 mg/kg-day.

The series is the same for the next values; noted with them: reproduction developmental.
In turn, `CCNc1nc(Cl)nc(NC(C)C)n1` [Atrazine] had an NOAEL of 2.5 mg/kg-day.
As for `CN/C(=N\[N+](=O)[O-])NCc1cnc(Cl)s1` [Clothianidin], the NOAEL is 10 mg/kg-day.
Still for that read-out and setting: the result for `CC(C)(C)[C@@H](O)/C(=C\c1ccc(Cl)cc1Cl)n1cncn1` [Diniconazole-M] reads 5 mg/kg-day.

Staying with this series, now noted: short-term; duration: 4 days.
`COC[C@H](C)N(C(=O)CCl)c1c(C)csc1C` [Dimethenamid-P] yielded an NOAEL of 25 mg/kg-day.

The series is the same for the next values; noted with them: subchronic; duration: 90 days.
In turn, `COC(=O)c1c(Cl)c(Cl)c(C(=O)OC)c(Cl)c1Cl` [Chlorthal-dimethyl] came in with an NOAEL of 50 mg/kg-day.
With `CC(C)N1C(=O)c2ccccc2NS1(=O)=O` [Bentazone], the NOAEL turned out to be 25 mg/kg-day.

Another series concerns Mus musculus. The following applies: short-term; duration: 14 days.
In the case of `CC1(c2ccc(Oc3ccccc3)cc2)OC(=O)N(Nc2ccccc2)C1=O` (configuration not stated) [Famoxadone], the NOAEL worked out at 20 mg/kg-day.

A further series concerns Oryctolagus sp. The conditions noted are these: developmental; development.
Compound `CS(=O)(=O)c1ccc(C(=O)C2C(=O)CCCC2=O)c(Cl)c1COCC(F)(F)F` [Tembotrione] returned an NOAEL of 1 mg/kg-day.
As to `O=C(Nc1ccccc1)Nc1cnns1` [Thidiazuron], the NOAEL was found to be 25 mg/kg-day.
The same measure, in the same setting: next, `ClC1C(Cl)C(Cl)C(Cl)C(Cl)C1Cl` (configuration not stated) [Lindane]: 5 mg/kg-day; `COC(=O)N(OC)c1ccccc1COc1ccn(-c2ccc(Cl)cc2)n1` [Pyraclostrobin]: 3 mg/kg-day; `CC(C)N(C(=O)CCl)c1ccccc1` [Propachlor]: 58 mg/kg-day.
For `Cc1cc(Cl)ccc1OCCCC(=O)O` [Thitrol], the NOAEL turned out to be 5 mg/kg-day.
The same measure, in the same setting: the result for `CN1COCN(Cc2cnc(Cl)s2)/C1=N/[N+](=O)[O-]` [Thiamethoxam] reads 50 mg/kg-day; that for `CON(C)C(=O)Nc1ccc(Cl)c(Cl)c1` [Linuron], 10 mg/kg-day.

Still in this series, the particulars now being: reproduction developmental.
For the compound `CN/C(=N\[N+](=O)[O-])NCc1cnc(Cl)s1` [Clothianidin], the NOAEL is 10 mg/kg-day.
For `CC(=O)[O][Sn]([c]1ccccc1)([c]1ccccc1)[c]1ccccc1` [Triphenyltin acetate], the NOAEL worked out at 0.1 mg/kg-day.
Same read-out and setting: next, `c1nc[n]([Sn]([CH]2CCCCC2)([CH]2CCCCC2)[CH]2CCCCC2)n1` [Azocyclotin]: 2 mg/kg-day.
As to `O=C(Nc1ccccc1)Nc1ccnc(Cl)c1` [Forchlorfenuron], the NOAEL stood at 100 mg/kg-day.
Same read-out and setting: the result for `CC1=C(C)S(=O)(=O)CCS1(=O)=O` [Dimethipin] reads 20 mg/kg-day; that for `O=C(O)C1(C(=O)Nc2ccc(Cl)cc2Cl)CC1` [Cyclanilide], 3 mg/kg-day; that for `[OH-].c1cc[c]([Sn+]([c]2ccccc2)[c]2ccccc2)cc1` [Triphenyltin hydroxide], 0.1 mg/kg-day.
For the compound `C1CC[CH]([Sn+]([CH]2CCCCC2)[CH]2CCCCC2)CC1.[OH-]` [Cyhexatin], the NOAEL was determined as 2 mg/kg-day.
Still for that read-out and setting: next, `CC(Oc1ccc(Oc2ccc(Cl)cc2Cl)cc1)C(=O)O` (configuration not stated) [Diclofop]: 3 mg/kg-day.
